Calls of active or inactive are those of the source.
Tests used:
[1] = biological target: T1, Voltage-gated potassium channel KCNC2 (Homo sapiens) (UniProt Q96PR1); test: Modulation activity at human recombinant Kv3.2 expressed in CHOK1 cells assessed as potentiation of whole-cell currents by measuring activation time at 3.1 uM at -70 mV holding potential incubated for 3 mins by lonWorks Quattro system based electrophysiology assay (reference value: 7.1 ms)
T1 sequence (whole entry): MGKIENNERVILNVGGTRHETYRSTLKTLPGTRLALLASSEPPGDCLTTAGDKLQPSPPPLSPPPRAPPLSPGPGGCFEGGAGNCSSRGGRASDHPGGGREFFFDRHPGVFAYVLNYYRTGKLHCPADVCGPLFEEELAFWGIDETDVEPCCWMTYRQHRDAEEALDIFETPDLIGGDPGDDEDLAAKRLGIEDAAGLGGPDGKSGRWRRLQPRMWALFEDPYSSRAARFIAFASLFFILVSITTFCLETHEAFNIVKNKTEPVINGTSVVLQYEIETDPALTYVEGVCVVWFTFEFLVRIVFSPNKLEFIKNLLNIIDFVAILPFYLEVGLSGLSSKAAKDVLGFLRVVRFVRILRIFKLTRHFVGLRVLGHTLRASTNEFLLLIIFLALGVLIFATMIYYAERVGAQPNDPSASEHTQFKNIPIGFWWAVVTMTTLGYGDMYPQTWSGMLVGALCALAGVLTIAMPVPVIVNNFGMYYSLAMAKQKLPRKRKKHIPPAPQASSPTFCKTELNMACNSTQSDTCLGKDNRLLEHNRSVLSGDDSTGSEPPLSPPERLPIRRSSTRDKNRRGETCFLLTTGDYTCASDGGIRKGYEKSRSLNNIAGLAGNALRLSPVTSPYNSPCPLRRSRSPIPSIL

[2] = biological target: T1, Voltage-gated potassium channel KCNC2 (Homo sapiens); test: Positive modulation activity at human recombinant Kv3.2 expressed in CHOK1 cells assessed as effect on activation time at -70 mV holding potential incubated for 3 mins by lonWorks Quattro system based electrophysiology assay (reference value: 7.1 ms); assay type: cell-based
[3] = biological target: T1, Voltage-gated potassium channel KCNC2 (Homo sapiens); test: Modulation activity at human recombinant Kv3.2 expressed in CHOK1 cells assessed as potentiation of whole-cell currents by measuring activation time at 0.8 uM at -70 mV holding potential incubated for 3 mins by lonWorks Quattro system based electrophysiology assay (reference value: 7.1 ms)
Mus musculus [4] = test: Reduction in amphetamine-induced hyperactivity in CD1 mouse assessed as reduction in amphetamine-induced increase in total distance travelled at 3 mg/kg, ip pretreated with compound 30 mins before amphetamine challenge and measured over 60 mins post amphetamine challenge; assay type: functional, organism-based
Mus musculus [5] = test: Reduction in amphetamine-induced hyperactivity in CD1 mouse assessed as amphetamine-induced increase in total distance travelled at 3 mg/kg, ip pretreated with compound 30 mins before amphetamine challenge and measured over 60 mins post amphetamine challenge (reference value: 16304 +/- 3309 cm); assay type: functional
[6] = biological target: T1, Voltage-gated potassium channel KCNC2 (Homo sapiens); test: Modulation activity at human recombinant Kv3.2 expressed in CHOK1 cells assessed as potentiation of whole-cell currents by measuring activation time at 0.2 uM at -70 mV holding potential incubated for 3 mins by lonWorks Quattro system based electrophysiology assay
[7] = biological target: T1, Voltage-gated potassium channel KCNC2 (Homo sapiens); test: Negative modulation activity at human recombinant Kv3.2 expressed in CHOK1 cells assessed as effect on activation time at -70 mV holding potential incubated for 3 mins by lonWorks Quattro system based electrophysiology assay; assay type: cell-based
[8] = biological target: T1, Voltage-gated potassium channel KCNC2 (Homo sapiens); test: Modulation activity at human recombinant Kv3.2 expressed in CHOK1 cells assessed as potentiation of whole-cell currents by measuring activation time at 12.5 uM at -70 mV holding potential incubated for 3 mins by lonWorks Quattro system based electrophysiology assay (reference value: 7.1 ms)
Callithrix jacchus [9] = test: Antipsychotic-like activity in common marmoset assessed as induction of increase in absolute power in delta band at 3 mg/kg, po measured between 30 and 120 mins by electroencephalography analysis; assay type: functional, organism-based
Callithrix jacchus [10] = test: Antipsychotic-like activity in common marmoset assessed as induction of increase in theta band power at 3 mg/kg, po measured at 60 mins by electroencephalography analysis; assay type: functional, organism-based
Callithrix jacchus [11] = test: Antipsychotic-like activity in common marmoset assessed as induction of increase in absolute power in delta band at 1 mg/kg, po measured at 30 mins by electroencephalography analysis; assay type: functional, organism-based
Callithrix jacchus [12] = test: Antipsychotic-like activity in common marmoset assessed as induction of reduction in power in beta band at 1 mg/kg, po measured at 30 mins by electroencephalography analysis; assay type: functional, organism-based
Callithrix jacchus [13] = test: Effect on absolute power in alpha band in common marmoset at 0.3 to 3 mg/kg, po by electroencephalography analysis; assay type: ADME, organism-based; conditions: in vivo
[14] = biological target: T1, Voltage-gated potassium channel KCNC2 (Homo sapiens); test: Modulation activity at human recombinant Kv3.2 expressed in CHOK1 cells assessed as potentiation of whole-cell currents by measuring activation time at 0.4 uM at -70 mV holding potential incubated for 3 mins by lonWorks Quattro system based electrophysiology assay (reference value: 7.1 ms)
Rattus norvegicus [15] = test: Increase in threshold for tonic hindlimb extensor seizures in CD rat model of electroshock seizure at 300 mg/kg, po relative to untreated control; assay type: functional
[16] = biological target: T1, Voltage-gated potassium channel KCNC2 (Homo sapiens); test: Modulation activity at human recombinant Kv3.2 expressed in CHOK1 cells assessed as potentiation of whole-cell currents at 6.3 uM at -70 mV holding potential incubated for 3 mins by lonWorks Quattro system based electrophysiology assay
[17] = biological target: T1, Voltage-gated potassium channel KCNC2 (Homo sapiens); test: Modulation activity at human recombinant Kv3.2 expressed in CHOK1 cells assessed as potentiation of whole-cell currents at 25 uM at -70 mV holding potential incubated for 3 mins by lonWorks Quattro system based electrophysiology assay
[18] = biological target: T1, Voltage-gated potassium channel KCNC2 (Homo sapiens); test: Modulation activity at human recombinant Kv3.2 expressed in CHOK1 cells assessed as potentiation of whole-cell currents by measuring activation time at 6.25 uM at -70 mV holding potential incubated for 3 mins by lonWorks Quattro system based electrophysiology assay (reference value: 7.1 ms)
Mus musculus [19] = species on record: Mus musculus; test: (§1) Modulation activity at Kv3 channel-mediated firing activity of parvalbumin-positive interneurons isolated form somatosensory cortex of transgenic [CB6-Tg (Gad1-EGFP) G42Zjh/J] mouse assessed as reduction in 0.5 mM TEA-induced action potential half-width at 1 uM incubated for 1 hr at resting potential of -80 mV by electrophysiology assay
Mus musculus [20] = species on record: Mus musculus; test: as §1, with “at 10” for “at 1”
[21] = biological target: T2, Voltage-gated potassium channel KCNC1 (Mus musculus) (UniProt P15388); test: Modulation activity at Kv3.1 channel-mediated potassium currents in neurons isolated from medial nucleus of trapezoid body in CBA/Ca mouse assessed as reversal of TEA-induced reduction in voltage steps to +40 mV-evoked amplitude of outward high voltage-activated potassium currents at 10 uM at resting potential of -60 mV incubated for 5 mins by electrophysiology assay
T2 sequence (whole entry): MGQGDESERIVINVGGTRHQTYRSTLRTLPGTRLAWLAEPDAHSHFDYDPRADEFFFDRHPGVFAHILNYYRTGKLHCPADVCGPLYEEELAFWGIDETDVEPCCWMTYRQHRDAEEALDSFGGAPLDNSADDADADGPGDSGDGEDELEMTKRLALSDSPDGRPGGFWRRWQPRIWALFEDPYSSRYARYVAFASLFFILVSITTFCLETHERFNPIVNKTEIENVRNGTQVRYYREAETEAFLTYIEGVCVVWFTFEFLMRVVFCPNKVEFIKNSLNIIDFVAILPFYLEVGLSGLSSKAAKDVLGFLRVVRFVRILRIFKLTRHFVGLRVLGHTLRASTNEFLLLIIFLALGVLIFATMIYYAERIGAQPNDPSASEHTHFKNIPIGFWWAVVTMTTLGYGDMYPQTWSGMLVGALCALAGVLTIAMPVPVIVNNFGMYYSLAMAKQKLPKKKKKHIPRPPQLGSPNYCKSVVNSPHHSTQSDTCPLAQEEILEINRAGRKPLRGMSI

Rattus norvegicus [22] = test: Increase in threshold for tonic hindlimb extensor seizures in CD rat model of electroshock seizure at 30 mg/kg, po relative to untreated control; assay type: functional
Rattus norvegicus [23] = test: Increase in threshold for tonic hindlimb extensor seizures in CD rat model of electroshock seizure at 60 mg/kg, po relative to untreated control; assay type: functional
Mus musculus [24] = test: Reduction in amphetamine-induced hyperactivity in CD1 mouse assessed as reduction in amphetamine-induced increase in total distance travelled at 30 mg/kg, po pretreated with compound 30 mins before amphetamine challenge and measured over 60 mins post amphetamine challenge; assay type: functional, organism-based
Mus musculus [25] = test: Reduction in amphetamine-induced hyperactivity in CD1 mouse assessed as reduction in amphetamine-induced increase in total distance travelled at 60 mg/kg, po pretreated with compound 30 mins before amphetamine challenge and measured over 60 mins post amphetamine challenge; assay type: functional, organism-based
Mus musculus [26] = test: Reduction in amphetamine-induced hyperactivity in CD1 mouse assessed as amphetamine-induced increase in total distance travelled at 10 mg/kg, po pretreated with compound 30 mins before amphetamine challenge and measured over 60 mins post amphetamine challenge (reference value: 16304 +/- 3309 cm); assay type: functional
Callithrix jacchus [27] = test: Sedative or hypnotic effect in marmoset assessed as reduction in number of animal jumps at 1 and 3 mg/kg, po dosed 2 hrs before test and measured over 2 mins post dose; assay type: functional, organism-based
Callithrix jacchus [28] = test: Effect on animal postures in marmoset at 1 and 3 mg/kg, po dosed 2 hrs before test and measured over 2 mins post dose; assay type: ADME, organism-based; conditions: in vivo

CC[C@H]1NC(=O)N(c2ccc(Oc3ccc(C#N)c(OC(C)C)c3)nc2)C1=O
TIME [1]: 2.69e-06 h

CC[C@H]1NC(=O)N(c2ccc(Oc3ccc(C#N)cc3C3CC3)nc2)C1=O
TIME [1]: 3.61e-06 h
Activity [2]: Active

CC[C@H]1NC(=O)N(c2ccc(Oc3ccc(C#N)c(C(C)C)c3)nc2)C1=O
TIME [3]: 2.56e-06 h
Activity [2]: Active

CC[C@H]1NC(=O)N(c2ccc(Oc3ccc(C#N)c(C4CC4)c3)nc2)C1=O
TIME [1]: 2.11e-06 h
Activity [2]: Active

CN1CCN(C2=Nc3cc(Cl)ccc3Nc3ccccc32)CC1 [CLOZAPINE]
Activity (Mus musculus [4]): Active
Activity (Mus musculus [5]): 932 cm

CC[C@H]1NC(=O)N(c2ccc(Oc3ccc(C#N)cc3C(C)(C)C)nc2)C1=O
TIME [6]: 6.39e-06 h
inhibition [7]: Active

CC[C@@]1(C)NC(=O)N(c2ccc(Oc3ccc(C)c(OC)c3)nc2)C1=O
TIME [8]: 2.03e-06 h
Activity [2]: Active
Activity (Callithrix jacchus [9]): Active
Activity (Callithrix jacchus [10]): Active
Activity (Callithrix jacchus [11]): Active
Activity (Callithrix jacchus [12]): Active
Activity (Callithrix jacchus [13]): Non-Toxic

CC[C@H]1NC(=O)N(c2ccc(Oc3ccc(C#N)c(OC(F)(F)F)c3)nc2)C1=O
TIME [1]: 2.89e-06 h

CC1(C)NC(=O)N(c2ccc(Oc3cccc4c3C3(CC3)CO4)nc2)C1=O
TIME [14]: 5.36e-06 h
inhibition [7]: Active

CCc1cc(Oc2ccc(N3C(=O)N[C@H](CC)C3=O)cn2)ccc1C#N
TIME [1]: 2.28e-06 h

CCCC(CCC)C(=O)[O-].[Na+] [VALPROATE SODIUM]
Activity (Rattus norvegicus [15]): 258%

CC[C@H]1NC(=O)N(c2ccc(Oc3ccc(C)c(OC)c3)nc2)C1=O
Activity [16]: Active
Activity [17]: Active
TIME [18]: 2.75e-06 h
Activity [2]: Active
inhibition (Mus musculus [19]): 24%
inhibition (Mus musculus [20]): 36%
Activity [21]: Active
Activity (Rattus norvegicus [22]): 91%
Activity (Rattus norvegicus [23]): 218%
Activity (Mus musculus [24]): Active
Activity (Mus musculus [25]): Active
Activity (Mus musculus [26]): 15267 cm
Activity (Callithrix jacchus [27]): Active
Activity (Callithrix jacchus [28]): Non-Toxic
